In patent publication EP0937460A2, “Use of an antidiarrheal for the manufacture of a medicament for the treatment of inflammatory conditions” (Adolor Corporation, priority 1994, dated 1995):

How the values were obtained:
Assay type in all cases: cell-based
TNF production [1] = experiment: Inhibition of LPS-stimulated TNF production in the human monocytic cell line THP-1 (ELISA); conditions: for activity at 10 µM / inhibition at 10 µM: Homo sapiens; for activity at 10 µM: 6 h, read-out: TNF LEVEL % Control (LPS alone), Ave. ± S.D.; for activity at 10 µM / TNF LEVEL % Control (LPS alone); Ave. ± S.D.: THP-1 cells, DRUG [10 µM], LPS 1 µg/mL; for effectiveness against LPS-stimulated TNF production (in words) / inhibition at 10 µM: LPS-stimulated THP-1 cells; for effectiveness against LPS-stimulated TNF production (in words): 10 µM; for inhibition at 10 µM: drug 10 µM, read-out: inhibition of TNF production
Description: Cultures were maintained by the addition of fresh growth medium to a T-75 or T-150 flask of cells in suspension, or by pelleting the cells and re-suspending them in the appropriate volume of fresh medium. Maximum cell density was 1.0 x 10^6 cells per mL and cultures were seeded at a minimum density of 0.2 x 10^6 cells per ml.
THP-1 cells were plated into 24-well plates at a density of 1.0 x 10^6 cells per mL in 0.5 mL medium per well. […] For measurement of IL-1α and IL-1β production, THP-1 cells were incubated with 500 ng/mL or 50 ng/mL LPS and incubated for 16 hours. Levels of secreted cytokine were measured in cell supernatants as for TNF. Cell-associated species were measured in cell lysates which were prepared by repetitive freeze-thawing of cells. For in vitro screening, drugs at 10 µM concentration were co-administered with LPS. […] Drug effects on cell viability were assessed by the MTT assay. […] Water-soluble drugs were dissolved in aqueous solutions such as RPMI or deionized H20. The final concentration of DMSO in the incubation medium was at or below 0.01% and that of ethanol was at or below 0. 1%. The effect on cell viability was evaluated by the MTT assay.

TNF production [2] = experiment: Inhibition of LPS-stimulated TNF production in the mouse macrophage line RAW 264.7 (ELISA); conditions: RAW cells; for activity at 10 µM: RAW264.7, 6 h, read-out: TNF LEVEL % Control (LPS alone), Ave. ± S.D.; for activity at 10 µM / TNF LEVEL % Control (LPS alone); Ave. ± S.D.: DRUG [10 µM], LPS at 10 ng/mL; for inhibition at 10 µM: LPS 10 ng/mL, read-out: inhibition of LPS-stimulated TNF secretion
Description: Cells were passaged at confluence by scraping and routinely plated at a density of 0.25 x 10^6 and 0.5 x 10^6 cells per T-75 and T-150, respectively.
Typically, RAW cells were plated at 0.25 x 10^6 cells per well of a 24-well plate, in 0.5 mL media per well on the day prior to experimentation. […] 1%. Drugs were co-administered with the stimulant, LPS. After a 6-hr incubation period with LPS ± drug (n = 3-4), the media from the experimental wells was harvested, the cells were removed by microcentrifugation, and the media assayed for TNF by ELISA. Drugs were screened at 10 µM for their ability to alter TNF production by cells stimulated with 1 µg/mL or 10 ng/mL LPS. Dexamethasone, an anti-inflammatory corticosteroid, served as the reference for inhibition of the LPS response.

TNF production [3] = experiment: Inhibition of TPA-stimulated TNF production in human epidermal keratinocytes (ELISA); conditions: for activity at 10 µM: epidermal keratinocytes, read-out: TNF LEVEL % Control (LPS alone), Ave. ± S.D.
[4] = Mus musculus, RAW264.7, drug 10 µM
[5] = Homo sapiens, HEK cells, DRUG [10 µM], stimulation by TPA 10 ng/mL

## COc1ccc([C@@H]2Sc3ccccc3N(CCN(C)C)C(=O)[C@@H]2OC(C)=O)cc1 [Diltiazem, 1,5-Benzothiazepin-4(5H)-one, 3-(acetyloxy)-5-[2-(dimethylamino)ethyl]-2,3-dihydro-2-(4-methoxyphenyl)-, (2S-cis)-]
TNF production [1]
  activity at 10 µM: 86 ± 16%
  effectiveness against LPS-stimulated TNF production (in words): much less effective
TNF production [2]; Mus musculus
  activity at 10 µM: 47 ± 1%

## O=C1c2c(O)cccc2Cc2cccc(O)c21 [dithranol]
TNF production [2]; [4]
  inhibition at 10 µM: 67%

## CN(C)c1nc(N)c(C(=O)N=C(N)N)nc1Cl [dimethylamiloride]
TNF production [2]; drug 10 µM
  effectiveness against LPS-stimulated TNF production (in words): same extent of inhibition as amiloride

## COc1ccc(CCN(C)CCC[C@@](C#N)(c2ccc(OC)c(OC)c2)C(C)C)cc1OC [(-)-Verapamil, (-)-verapamil]
TNF production [1]
  TNF LEVEL % Control (LPS alone); Ave. ± S.D.: 53±3 % Control

## O=c1[nH]c2ccccc2n1C1CCN(CCCC(c2ccc(F)cc2)c2ccc(F)cc2)CC1 [pimozide]
TNF production [2]; [4]
  inhibition at 10 µM: 60 to 70%

## NCC(O)c1ccc(O)c(O)c1 (stereo not shown) [Arterenol]
TNF production [1]
  TNF LEVEL % Control (LPS alone); Ave. ± S.D.: 1±0.2 % Control
TNF production [2]
  TNF LEVEL % Control (LPS alone); Ave. ± S.D.: 38±4 % Control
TNF production [3]; HEK cells, DRUG [10 µM], stimulation by TPA 10 ng/mL
  TNF LEVEL % Control (LPS alone); Ave. ± S.D.: 47±10 % Control

## CCCCOc1cc(CC2CNC(=O)N2)ccc1OC (stereo not shown) [RO 20-1724]
TNF production [1]
  inhibition at 10 µM: 55%
  TNF LEVEL % Control (LPS alone); Ave. ± S.D.: 45±34 % Control
TNF production [2]; Mus musculus, RAW264.7
  IC50: 1 to 10 nM
TNF production [2]; [4]
  inhibition at 10 µM: 47%
TNF production [2]
  TNF LEVEL % Control (LPS alone); Ave. ± S.D.: 47±23 % Control

## CC(C)COCC(CN(Cc1ccccc1)c1ccccc1)N1CCCC1 (stereo not shown) [Bepridil, 1-Pyrrolidieneethanamine, b-[(2-methylpropoxy)methyl]-N-phenyl-N-(phenylmethyl)]
TNF production [1]
  activity at 10 µM: 77 ± 9%
TNF production [2]; Mus musculus
  activity at 10 µM: 40 ± 4%

## COc1ccc(CCN(C)CCC[C@](C#N)(c2ccc(OC)c(OC)c2)C(C)C)cc1OC [(+)-Verapamil, (+)-verapamil]
TNF production [1]
  TNF LEVEL % Control (LPS alone); Ave. ± S.D.: 51±2 % Control

## CC/C(=C(\c1ccccc1)c1ccc(OCCN(C)C)cc1)c1ccccc1 [tamoxifen]
TNF production [2]; [4]
  inhibition at 10 µM: ~65%

## CSc1ccc2c(c1)N(CCC1CCCCN1C)c1ccccc1S2 (stereo not shown) [thioridazine]
TNF production [2]; [4]
  inhibition at 10 µM: 60 to 70%

## CC(=O)CCCCn1c(=O)c2c(ncn2C)n(C)c1=O [Pentoxifylline, pentoxifylline]
TNF production [1]
  activity at 10 µM: ≥ 100%
TNF production [2]; Mus musculus
  activity at 10 µM: 43 ± 2%
TNF production [2]; [4]
  inhibition at 10 µM: 57%

## COC(=O)C1=C(C)NC(C)=C(C(=O)OCCN(C)Cc2ccccc2)C1c1cccc([N+](=O)[O-])c1 (stereo not shown) [Nicardipine, 3,5-Pyridinedicarboxylic acid, 1,4-dihydro-2,6-dimethyl-4-(3-nitrophenyl)-, methyl 2-[methyl(phenylmethyl)amino]ethyl ester]
TNF production [1]
  activity at 10 µM: 44 ± 1%
  inhibition at 10 µM: 56%
TNF production [2]; Mus musculus
  activity at 10 µM: 59 ± 35%

## COC(=O)C1=C(C)NC(C)=C(C(=O)OC)C1c1ccccc1[N+](=O)[O-] [Nifedipine]
TNF production [1]
  activity at 10 µM: 119%
TNF production [2]; Mus musculus
  activity at 10 µM: 79 ± 24%
TNF production [3]; [5]
  activity at 10 µM: 88 ± 40%

## CC(C)(C)NCC(O)c1cc(O)cc(O)c1 (stereo not shown) [Terbutaline, terbutaline]
TNF production [1]
  activity at 10 µM: 12 ± 4%
TNF production [2]; Mus musculus
  activity at 10 µM: 33 ± 9%
TNF production [3]; [5]
  activity at 10 µM: 36 ± 8%

## CCOC(=O)C1(c2ccccc2)CCN(CCC(C#N)(c2ccccc2)c2ccccc2)CC1 [Diphenoxylate, diphenoxylate]
TNF production [3]; Homo sapiens
  activity at 10 µM: 68 ± 10%

## COC(=O)C1=C(C)NC(C)=C(C(=O)OC(C)(C)CN(C)CCC(c2ccccc2)c2ccccc2)C1c1cccc([N+](=O)[O-])c1 (stereo not shown) [Rec 15/2375]
TNF production [1]
  TNF LEVEL % Control (LPS alone); Ave. ± S.D.: 57±15 % Control
TNF production [2]
  TNF LEVEL % Control (LPS alone); Ave. ± S.D.: 33± 1 % Control

## NC(N)=NC(=O)c1nc(Cl)c(N2CCCCCC2)nc1N [hexamethylamiloride]
TNF production [2]; drug 10 µM
  effectiveness against LPS-stimulated TNF production (in words): tremendous decrease
TNF production [3]; human keratinocytes, TPA 10 ng/mL, drug 10 µM
  effect on TPA-stimulated levels of TNF (in words): several fold higher

## CC(=O)S[C@@H]1CC2=CC(=O)CC[C@]2(C)[C@H]2CC[C@@]3(C)[C@@H](CC[C@@]34CCC(=O)O4)[C@H]12 [Spironolactone, spironolactone]
TNF production [1]
  activity at 10 µM: 54 ± 8%
  inhibition at 10 µM: 46%
  effectiveness against LPS-stimulated TNF production (in words): as effective as amiloride

## Clc1ccc(C(c2ccc(Cl)cc2)n2cc[n+](CC(OCc3ccc(Cl)cc3Cl)c3ccc(Cl)cc3Cl)c2)cc1 (stereo not shown) [calmidazolium]
TNF production [1]
  inhibition at 10 µM: 40 to 50%

## COCCOC(=O)C1=C(C)NC(C)=C(C(=O)OC(C)C)C1c1cccc([N+](=O)[O-])c1 (stereo not shown) [Nimodipine, nimodipine]
TNF production [1]
  activity at 10 µM: 81 ± 4%
TNF production [2]; Mus musculus
  activity at 10 µM: 37 ± 3%
TNF production [3]; [5]
  activity at 10 µM: 15 ± 3%

## NCCCCCCNS(=O)(=O)c1cccc2c(Cl)cccc12 [W-7]
TNF production [1]
  inhibition at 10 µM: 40 to 50%

## NS(=O)(=O)c1cc(C(=O)O)c(NCc2ccco2)cc1Cl [Furosemide, benzoic acid, 5-(aminosulfonyl)-4-chloro-2-[(2-furanylmethyl)amino]-]
TNF production [2]; Mus musculus
  activity at 10 µM: 49 ± 4%
TNF production [2]; [4]
  inhibition at 10 µM: ~49%
TNF production [2]; drug 10 µM
  effectiveness against LPS-stimulated TNF production (in words): comparable to amiloride

## O=C1CCC(N2C(=O)c3ccccc3C2=O)C(=O)N1 (stereo not shown) [Thalidomide]
TNF production [1]
  activity at 10 µM: 78 ± 9%
TNF production [2]; Mus musculus
  activity at 10 µM: 67 ± 37%
TNF production [3]; [5]
  activity at 10 µM: ≥ 100%

## CCCCNc1cc(C(=O)O)cc(S(N)(=O)=O)c1Oc1ccccc1 [bumetanide]
TNF production [2]; drug 10 µM
  effectiveness against LPS-stimulated TNF production (in words): minimal inhibition

## Fc1ccc(C(c2ccc(F)cc2)N2CCN(C/C=C/c3ccccc3)CC2)cc1 [flunarizine, Peperizine, 1-[bis(4-fluorophenyl)methyl]-4-(3-phenyl-2-propenyl)-, (E)]
TNF production [2]; [4]
  inhibition at 10 µM: 63%

## COc1ccc2c(c1)CCC(c1ccccc1)=C2c1ccc(OCCN2CCCC2)cc1 [nafoxidine]
TNF production [2]; [4]
  inhibition at 10 µM: ~65%

## C[C@@H]1C[C@H]2[C@@H]3CCC4=CC(=O)C=C[C@]4(C)[C@@]3(F)[C@@H](O)C[C@]2(C)[C@@]1(O)C(=O)CO [Dexamethasone, dexamethasone]
TNF production [1]
  activity at 10 µM: 33 ± 14%
  inhibition at 10 µM: 67%
TNF production [2]; Mus musculus
  activity at 10 µM: 39 ± 27%
TNF production [2]; drug 10 µM, LPS dose not stated
  inhibition of the stimulated production of TNF (decrease of secreted TNF vs LPS alone): 60%
TNF production [3]; Homo sapiens, Keratinocyte, keratinocytes, TPA 10 ng/mL, drug 10 µM, read-out: inhibition of the response to TPA (TNF production)
  inhibition at 10 µM: > 55%
TNF production [3]; [5]
  activity at 10 µM: 48 ± 12%

## COC(=O)C1=C(C)NC(C)=C(C(=O)OC(C)C)C1c1cccc2nonc12 (stereo not shown) [Isradipine, 3,5-Pyridinecarboxylic acid, 4-(4-benzofurazanyl)-l,4-dihydro-2,6-dimethyl, methyl 1-methylethyl ester]
TNF production [1]
  activity at 10 µM: 77 ± 8%
  effectiveness against LPS-stimulated TNF production (in words): much less effective
TNF production [2]; drug 10 µM
  effectiveness against LPS-stimulated TNF production (in words): as effective as dexamethasone
TNF production [3]; [5]
  activity at 10 µM: 60 ± 7%
